How the values were obtained:
Candida albicans = test: Antimicrobial screening by agar dilution; assay type: cell-based; settings: after 10, 20, 40 and 60 minutes at all dilutions 1:100, 1:200, 1:400, 1:800
Description: (§1) The antibacterial properties of the synthesized compound 6-(3-hydroxyphenyl)-2-methoxy-4-(3-methylphenyl)nicotinonitrile were studied by the method of agar dilution. Test solutions of each compound was prepared in concentration of 1% using dimethylformamide as a solvent then they are diluted in physiological solution to obtain the final experimental dilutions 1:100, 1:200, 1:400, 1:800. The effects of these substances are compared with furacillin in a controllable study. The testing microbes used were gram positive bacteria Staphylococcus aureus, gram negative bacteria Pseudomonas aeruginosa and Escherichia coli and Candida albicans fungus. The experiments used for this survey were meat-pentonlu agar (EPA) for cultivation of bacteria and Saburo environment for the fungus. Each experiment used 1 mL of test solution on each plate […]. Two drops of emulsified with microbes feel were added. All experimental samples were taken from the agar after 10, 20, 40, 60 minutes in the environment on the basis of Patrk planted. The bacteria were cultivated at a temperature of 37° C. for 1 day and the mushroom was kept in a thermostat for […] at a temperature of 28° C. Then results were checked.

Escherichia coli = test: Antimicrobial screening by agar dilution; assay type: cell-based; settings: after 10, 20, 40 and 60 minutes at all dilutions 1:100, 1:200, 1:400, 1:800
Description: as §1

Pseudomonas aeruginosa = test: Antimicrobial screening by agar dilution; assay type: cell-based; settings: after 10, 20, 40 and 60 minutes at all dilutions 1:100, 1:200, 1:400, 1:800
Description: as §1

Staphylococcus aureus = test: Antimicrobial screening by agar dilution; assay type: cell-based; settings: after 10, 20, 40 and 60 minutes at all dilutions 1:100, 1:200, 1:400, 1:800
Description: as §1

melting point: 205 to 207 °C
SMILES: COc1nc(-c2cccc(O)c2)cc(-c2cccc(C)c2)c1C#N [6-(3-hydroxyphenyl)-2-methoxy-4-(3-methylphenyl)nicotinonitrile]
inhibition activity (in words) (Candida albicans): highest inhibition activity
inhibition activity (in words) (Escherichia coli): highest inhibition activity
inhibition activity (in words) (Pseudomonas aeruginosa): highest inhibition activity
inhibition activity (in words) (Staphylococcus aureus): highest inhibition activity

Source: US11970451B1, “6-(3-hydroxyphenyl)-2-methoxy-4-(3-methylphenyl)nicotinonitrile as an antimicrobial compound” (KING FAISAL UNIVERSITY, priority 2023, dated 2024)
